In this experiment the test system is Plasmodium berghei. In words: Luciferase/luciferin-expressing antifolate-resistant parasites were used to infect a culture of HepG2 cells that were pre-incubated with compounds. Infected hepatocytes emit light due to the luciferase reaction. Assay results are presented as the percent inhibition of light emission compared to control. […]. Conditions: sporozoite; for IC90: read-out: LUCIFERASE INFECTION ASSAY - IC90. The experiment is classed as functional.

The term IC50 denotes the midpoint of a concentration-inhibition curve. Broadly, the IC90 is the concentration needed for an effect of 90%.

Some results are limits rather than exact numbers.

On to `CC(C)CC(N)c1csc(NC(=O)Nc2ccccc2-c2ccccc2)n1` (centres undefined), for which the 90% effect concentration (IC90) is 4.16 µM. Further, the half-maximal inhibitory concentration (IC50) (PBLUC_HILL_SLOPE 10.5, PBLUC_R_SQUARED 0.579, read-out: LUCIFERASE INFECTION ASSAY - IC50) was found to be 3.37 µM.
Take `Cc1ccc(NC(=O)c2cc(-c3cc(Cl)ccc3C)[nH]n2)cc1NS(C)(=O)=O`: the IC90 stood at 7.29 µM. In addition, the IC50 (PBLUC_HILL_SLOPE 10.6, PBLUC_R_SQUARED 0.45, read-out: LUCIFERASE INFECTION ASSAY - IC50) is 5.92 µM.
As for `C/C(=N\Nc1cccc([N+](=O)[O-])c1)c1cc2ccccc2o1`, the IC90 was 4.09 µM. The concentration for half-maximal inhibition (IC50) (PBLUC_HILL_SLOPE 10.9, PBLUC_R_SQUARED 0.683, read-out: LUCIFERASE INFECTION ASSAY - IC50) is 3.34 µM.
Consider `Cc1nc2ccccc2c(=O)n1/N=C/c1cn(-c2ccccc2)nc1-c1cccs1`, for which the 90% effect concentration (IC90) is above 10 µM. The IC50 (PBLUC_HILL_SLOPE 10.9, PBLUC_R_SQUARED 0.148, read-out: LUCIFERASE INFECTION ASSAY - IC50) is 8.36 µM.
Turning to `CCCc1cc(=O)n2nc(C)c(-c3ccc(Cl)cc3)c2[nH]1`, the 90% effect concentration (IC90) is 4.98 µM. Further, the half-inhibitory concentration (IC50) (PBLUC_HILL_SLOPE 10.5, PBLUC_R_SQUARED 0.468, read-out: LUCIFERASE INFECTION ASSAY - IC50) was 4.03 µM.
In the case of `c1csc(-c2cn3c(-c4ccsc4)cnc3cn2)c1`, the IC90 is above 11.6 µM. For the same molecule, under “PBLUC_HILL_SLOPE 10.9, PBLUC_R_SQUARED 0.0923, read-out: LUCIFERASE INFECTION ASSAY - IC50”, the concentration for half-maximal inhibition (IC50) was above 11.6 µM.
On to `CC(C)CC(NC(=O)c1ccc(C#N)cc1)c1ccccc1` (centres undefined), for which the concentration for an effect of 90% (IC90) stood at 9.52 µM. For the same molecule, the IC50 (PBLUC_HILL_SLOPE 10.9, 7.64, PBLUC_R_SQUARED 0.439, 0.355, read-out: LUCIFERASE INFECTION ASSAY - IC50) was 8.11 µM.
Regarding `CC(C)(C)OC(=O)N1CCc2nc(NC(=O)c3csc(-c4ccco4)n3)sc2C1`, the IC90 is above 10 µM. The IC50 (PBLUC_HILL_SLOPE 10.5, PBLUC_R_SQUARED 0.574, read-out: LUCIFERASE INFECTION ASSAY - IC50) turned out to be 9.17 µM.
`COc1ccc2[nH]c(C)c(-c3csc(NC(=O)c4ccccn4)n3)c2c1`: the concentration for an effect of 90% (IC90) was above 9.06 µM. Also, the IC50 (PBLUC_HILL_SLOPE 10.6, PBLUC_R_SQUARED 0.566, read-out: LUCIFERASE INFECTION ASSAY - IC50) turned out to be 7.84 µM.
Take `COc1cccc(-c2cn3c(-c4ccc(C(=O)NC5CC5)cc4)cnc3cn2)c1F`: the IC90 came to 7.93 µM. Moreover, for the setting “PBLUC_HILL_SLOPE 10.9, PBLUC_R_SQUARED 0.72, read-out: LUCIFERASE INFECTION ASSAY - IC50”, the IC50 stood at 6.48 µM.
On to `COc1cc(OC)cc(-c2cn3c(-c4cccc(OC(F)(F)F)c4)cnc3cn2)c1`, for which the IC90 was above 7.94 µM. For the same molecule, the IC50 (PBLUC_HILL_SLOPE 10.9, PBLUC_R_SQUARED 0.156, read-out: LUCIFERASE INFECTION ASSAY - IC50) was above 7.94 µM.
In the case of `COC(=O)c1ccc2c(=O)nc(CN3CCc4sccc4C3C)[nH]c2c1` (centres undefined), the IC90 was above 10 µM. Further, the IC50 (PBLUC_HILL_SLOPE 11, PBLUC_R_SQUARED 0.235, read-out: LUCIFERASE INFECTION ASSAY - IC50) is above 10 µM.
On to `Cc1ccc(SCc2cc(=O)n3nc(C)c(-c4ccccc4)c3[nH]2)cc1`, for which the IC90 is above 9.13 µM. The 50% inhibitory concentration (IC50) (PBLUC_HILL_SLOPE 11, PBLUC_R_SQUARED 0.259, read-out: LUCIFERASE INFECTION ASSAY - IC50) was determined as 7.6 µM.
On to `CCCOc1c(/C=C/C(=O)c2ccc(OCC#N)cc2)cccc1OCC`, for which the IC90 was found to be 9.68 µM. The half-inhibitory concentration (IC50) (PBLUC_HILL_SLOPE 10.6, PBLUC_R_SQUARED 0.425, read-out: LUCIFERASE INFECTION ASSAY - IC50) was 7.88 µM.
With `Cc1cc(OCC(=O)NCCc2c(C)cc(C(C)(C)C)cc2C)no1`, the IC90 worked out at 6.12 µM. Also, the IC50 (PBLUC_HILL_SLOPE 10.6, 8.08, PBLUC_R_SQUARED 0.262, 0.836, read-out: LUCIFERASE INFECTION ASSAY - IC50) came out at 4.78 µM.
With `COc1ccc(OC)c(S(=O)(=O)N2[C@@H]3CC[C@@H](C3)[C@H]2c2nc3cccc(OCc4ccccc4)c3[nH]2)c1`, the IC90 is above 10 µM. For the same molecule, the concentration for half-maximal inhibition (IC50) (PBLUC_HILL_SLOPE 10.6, PBLUC_R_SQUARED 0.0638, read-out: LUCIFERASE INFECTION ASSAY - IC50) was above 10 µM.
With `O=C(CNc1cccc(S(=O)(=O)N2CCCCC2)c1)NC(=O)NC1CCCCC1`, the IC90 is above 10 µM. The half-inhibitory concentration (IC50) (PBLUC_HILL_SLOPE 11, PBLUC_R_SQUARED 0.0354, read-out: LUCIFERASE INFECTION ASSAY - IC50) worked out at 9.65 µM.
As for `CCCn1c(-c2cccs2)nc2c(c(=O)c3ccccc3n2C)c1=O`, the 90% effect concentration (IC90) amounted to 3.69 µM. Moreover, under “PBLUC_HILL_SLOPE 10.5, PBLUC_R_SQUARED 0.782, read-out: LUCIFERASE INFECTION ASSAY - IC50”, the IC50 was 3 µM.
In the case of `Cc1c(C)c(C)c(S(=O)(=O)Nc2ccc(Oc3ccc(Cl)cc3)cc2)c(C)c1C`, the concentration for an effect of 90% (IC90) was above 7.68 µM. Further, under “PBLUC_HILL_SLOPE 11, PBLUC_R_SQUARED 0.0118, read-out: LUCIFERASE INFECTION ASSAY - IC50”, the IC50 was above 7.68 µM.
As to `CCOc1ccccc1/C=N/n1c(-c2ccc(CC)cc2)cs/c1=N\c1cccc(OC)c1`, the IC90 was determined as 3.81 µM. For the same molecule, the half-maximal inhibitory concentration (IC50) (PBLUC_HILL_SLOPE 10.6, PBLUC_R_SQUARED 0.562, read-out: LUCIFERASE INFECTION ASSAY - IC50) was found to be 3.1 µM.
On to `COc1ccc(NC(=O)c2cccc(S(=O)(=O)N(Cc3ccccc3)c3ccccc3Cl)c2)cn1`, for which the IC90 is above 10 µM. Moreover, the 50% inhibitory concentration (IC50) (PBLUC_HILL_SLOPE 11, PBLUC_R_SQUARED 0.0841, read-out: LUCIFERASE INFECTION ASSAY - IC50) was 9.79 µM.
Regarding `Cc1ccc(O)c(C(=O)c2cn/c(=N\c3ccccc3)n(-c3ccccc3)c2)c1`, the IC90 was 4.08 µM. Besides, the IC50 (PBLUC_HILL_SLOPE 10.6, PBLUC_R_SQUARED 0.86, read-out: LUCIFERASE INFECTION ASSAY - IC50) is 3.32 µM.
With `O=C(CSc1nnc(-c2ccccc2)[nH]1)N1c2ccccc2OCC1c1ccccc1` (centres undefined), the concentration for an effect of 90% (IC90) was above 10 µM. Further, the half-inhibitory concentration (IC50) (PBLUC_HILL_SLOPE 11.0, 1.31, PBLUC_R_SQUARED 0.138, 0.609, read-out: LUCIFERASE INFECTION ASSAY - IC50) is 6.33 µM.
As to `CCCCOc1ccc(Nc2nc(C(N)Cc3ccc(OC)cc3)cs2)nn1` (centres undefined), the 90% effect concentration (IC90) was found to be 3.76 µM. Also, under “PBLUC_HILL_SLOPE 10.9, PBLUC_R_SQUARED 0.27, read-out: LUCIFERASE INFECTION ASSAY - IC50”, the IC50 is 3.08 µM.
Turning to `CNc1snc(C)c1C(=O)N(C)Cc1ccc(F)cc1F`, the IC90 is 4.37 µM. Also, the 50% inhibitory concentration (IC50) (PBLUC_HILL_SLOPE 10.5, PBLUC_R_SQUARED 0.526, read-out: LUCIFERASE INFECTION ASSAY - IC50) stood at 3.55 µM.
As to `CNc1nnc(Sc2ncnc3ccsc23)s1`, the IC90 is 9.41 µM. For the same molecule, the half-inhibitory concentration (IC50) (PBLUC_HILL_SLOPE 11, PBLUC_R_SQUARED 0.35, read-out: LUCIFERASE INFECTION ASSAY - IC50) was 7.71 µM.
In the case of `Cc1nc(-c2ccccn2)nc(NCc2ccccc2)c1Cl`, the IC90 was found to be 9.83 µM. Further, the half-inhibitory concentration (IC50) (PBLUC_HILL_SLOPE 11, PBLUC_R_SQUARED 0.469, read-out: LUCIFERASE INFECTION ASSAY - IC50) came out at 8.06 µM.

These data come from ChEMBL document CHEMBL4483862, “Open-source discovery of chemical leads for next-generation chemoprotective antimalarials” (2018).
